{
  "source": "patent US20220386573A1",
  "about": "“HUMANIZED MOUSE MODEL WITH HUMAN IMMUNE SYSTEM” (Board of Regents, The University of Texas System, priority 2019, published 2022)",
  "type_in_all_cases": "in vivo, mouse",
  "key": {"[1]": {"system": "NSGW41 H-Mice", "experiment": "T-dependent antibody response to NP16-CGG immunization, E2 water vs plain water", "description": "To address the antibody response within NSGW41 H-Mice, 16 NSGW41 H-Mice were segregated into two groups of 8 mice each. One group was fed water containing estrogen (NSGW41 H-Mice) and the other plain water (huNSG^W41), each of them were then i.p. injected with NP16-CGG and Alum. The NSGW41 H-Mice were compared to Jackson Labs CD34^+ humanized mice (Jax CD34^+). […] However, the Jax CD34^+ had dramatically lower titers, correlating with reduced human reconstitution. […] (FIG. 3B).\nE2 promotes myeloid lineage differentiation and B2 proliferation. Since estrogen administration had such a dynamic impact on the maturation of antibody response within NSGW41 H-Mice, the cellular composition and lymphoid architecture. B1/B2 cell ratios were compared across HIS platforms following immunization with NP-CGG. […] To investigate the formation of lymphoid follicles and germinal center structures, Jax CD34^+, huNSG, and NSGW41 H-Mice spleens were extracted 10 days post-immunization. […] These findings are supported by IHC staining of huCD20, huCD3 and huKI67 showing germinal center structures in NSGW41 H-Mice (FIG. 5D).\n(§1) Immunizations. NSGW41 H-Mice were injected intraperitoneally with 4-hydroxy-3-nitrophenylacetlyl (NP) conjugated to CGG (NP-CGG) (average: 16 NP molecule conjugated with one CGG molecule; Biosearch; 100 μg) in PBS (100 μl) with Alum (100 μl), or 2,4-Dinitrophenyl conjugated to CpG (DNP-CpG) (1 DNP molecule conjugated with one CpG molecule; Eurofins Genomics; 25 μg) in PBS (100 μl) without adjuvant. Sera were collected before injection and at specified time points after injection.\n(§2) E2 Administration. NSGW41 H-Mice were given drinking water ad libitum containing 1 μM estradiol.\n(§3) Detection of antibodies. Titers of IgM, IgD, IgG and IgA from in vitro culture supernatants of stimulated human and H-Mice B cells or titers of circulating and/or NP-binding/DNP-binding IgM, IgG, and IgA were measured using specific ELISAs. IgE were detected by sandwich ELISAs, using plates coated with anti-human IgE mAb. Serial two-fold diluted serum samples in PBS-(0.05%) Tween 20 (PBS-Tween 20) were added to the plates and incubated for 2 h at 23° C. After washing with PBS-Tween 20, biotin-detection antibody was added. After a final washing, IgE antibodies were detected using streptavidin-horseradish peroxidase. Antigen specific antibody titers are expressed as relative units (RU), defined as the dilution factor needed to reach 50% saturation binding, as calculated using GraphPad Prism® software (GraphPad).\n(§4) Flow cytometry. Total B cells and PBMCs were subject to flow cytometry for pre-and-post isolation phenotypic analysis using the following surface markers and fluorophores: PEcy7-anti-human-CD19 (clone H1B19; Biolegend), PE-anti-human-CD27 (clone M-T271; Biolegend), BV421-anti-human-IgD (clone HB-7; Biolegend), FITC-anti-human-IgG (clone G18-145; BD Pharmingen), APC-anti-human-IgA (clone IS11-8E10; Miltenyi Biotec) and APC-Cy7-anti-IgM (clone MHM-88, Biolegend) and run on a BD LSRII (BD Biosciences) with the FACSDiva software (BD Biosciences). Data were analyzed using FlowJo software (FlowJo LLC)."}, "[2]": {"system": "NSGW41 H-Mice", "experiment": "T-independent antibody response to DNP-CpG injection, E2 water vs plain water", "details": "DNP-CpG i.p.", "description": "While NP16-CGG evaluates the T cell-dependent response, the NSGW41 H-Mice immune system's ability to generate a T cell-independent antibody response was investigated. To do so, 16 mice NSGW41 H-Mice were segregated amongst the E2 and plain water groups and injected with Haptenated TLR9 ligand, DNP-CpG IP. […] Thus, NSGW41 H-Mice receiving E2 treatment can mount a mature antibody response to T-dependent and T-independent antigens complete with class-switched, high affinity antibody production and generation of both plasma and memory B cells.\nas §1, §2, §3, §4"}, "[3]": {"system": "NSGW41 H-Mice", "experiment": "E2 administration in drinking water, tolerability", "details": "1 μM estradiol or above, drinking water ad libitum", "protocol": "as §2"}, "[4]": {"details": "NP16-CGG and alum i.p., E2-water vs plain water"}},
  "data": [
    {"smiles": "C[C@]12CC[C@@H]3c4ccc(O)cc4CC[C@H]3[C@@H]1CC[C@@H]2O", "note": "[E2, estradiol]", "values": [
      {"measurement": "Class-switched IgG, IgG1-4, IgA and IgE production", "setting": "[1]; [4]", "value": "drastically increased"},
      {"measurement": "NP7-binding IgM and IgG antibody titers", "setting": "[1]; [4]", "value": "significantly greater"},
      {"measurement": "Number of spleen IgG and IgA class-switched effector, IgD-CD27+ memory B cells and bone marrow CD27+CD38+ plasmablasts/plasma cells", "setting": "[1]; [4]", "value": "increased number"},
      {"measurement": "IgM serum titers", "setting": "[1]; NP16-CGG and alum i.p., estrogen water (NSGW41 H-Mice) vs plain water (huNSGW41)", "value": "comparable"},
      {"measurement": "Germinal center B cells", "setting": "[1]; lymph nodes, 10 days post-immunization with NP-CGG, estrogen pre-conditioned vs untreated", "value": "two-fold increase"},
      {"measurement": "Class-switched IgG and IgA antibody production", "setting": "[2]", "value": "dynamically potentiated"},
      {"measurement": "DNP4-binding IgM, IgG and IgA titers", "setting": "[2]", "value": "significantly increased"},
      {"measurement": "Numbers of IgG+ and IgA+ B cells, splenic IgD-CD27+ memory B cells and bone marrow CD27+CD38+ plasmablasts/plasma cells", "setting": "[2]", "value": "increased numbers"},
      {"measurement": "Total IgM production", "setting": "[2]", "value": "comparable"},
      {"measurement": "Adverse effects of drinking water containing estradiol", "setting": "[3]", "value": "no adverse effects"}
    ]}
  ]
}
